Source: paper PMC4334441 (Analytical biochemistry, 2013)
Like-named read-outs stand apart in the source and are kept apart here.

Tests used:
Format in all cases: biochemical
[1] = molecular target: mammalian-expressed ADAM17_ECD (Homo sapiens, UniProt P78536); assay: Inhibition studies; conditions: comparison of insect- and mammalian-produced ADAM17_ECD
[2] = molecular target: insect-produced ADAM17 ECD (Homo sapiens, UniProt P78536); assay: Inhibition kinetics; conditions: for Ki/Ki′ (alpha) / inhibition mechanism: insect-produced ADAM17 ECD; for Ki/Ki′ (alpha): mixed-model inhibition; for inhibition mechanism: confirmed by Lineweaver-Burke plots
Chain of insect-produced ADAM17 ECD (P78536 215-671 limits assumed): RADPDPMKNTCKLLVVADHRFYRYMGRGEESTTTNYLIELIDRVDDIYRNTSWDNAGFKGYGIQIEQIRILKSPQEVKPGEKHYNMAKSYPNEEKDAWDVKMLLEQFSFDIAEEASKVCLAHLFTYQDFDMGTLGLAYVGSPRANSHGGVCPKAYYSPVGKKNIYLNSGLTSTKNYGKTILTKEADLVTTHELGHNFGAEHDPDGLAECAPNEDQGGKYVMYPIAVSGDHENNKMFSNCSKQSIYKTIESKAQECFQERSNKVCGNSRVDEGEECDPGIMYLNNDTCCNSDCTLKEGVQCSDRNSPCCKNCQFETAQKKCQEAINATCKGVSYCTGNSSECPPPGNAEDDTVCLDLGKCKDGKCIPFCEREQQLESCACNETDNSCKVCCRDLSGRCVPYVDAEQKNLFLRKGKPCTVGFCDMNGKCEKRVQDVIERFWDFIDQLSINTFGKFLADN

[3] = molecular target: mammalian-produced ADAM17 ECD (Homo sapiens, UniProt P78536); assay: Inhibition kinetics; conditions: for Ki/Ki′ (alpha) / inhibition mechanism: mammalian-produced ADAM17 ECD; for Ki/Ki′ (alpha): mixed-model inhibition; for inhibition mechanism: confirmed by Lineweaver-Burke plots
Chain of mammalian-produced ADAM17 ECD (P78536 215-651 limits assumed): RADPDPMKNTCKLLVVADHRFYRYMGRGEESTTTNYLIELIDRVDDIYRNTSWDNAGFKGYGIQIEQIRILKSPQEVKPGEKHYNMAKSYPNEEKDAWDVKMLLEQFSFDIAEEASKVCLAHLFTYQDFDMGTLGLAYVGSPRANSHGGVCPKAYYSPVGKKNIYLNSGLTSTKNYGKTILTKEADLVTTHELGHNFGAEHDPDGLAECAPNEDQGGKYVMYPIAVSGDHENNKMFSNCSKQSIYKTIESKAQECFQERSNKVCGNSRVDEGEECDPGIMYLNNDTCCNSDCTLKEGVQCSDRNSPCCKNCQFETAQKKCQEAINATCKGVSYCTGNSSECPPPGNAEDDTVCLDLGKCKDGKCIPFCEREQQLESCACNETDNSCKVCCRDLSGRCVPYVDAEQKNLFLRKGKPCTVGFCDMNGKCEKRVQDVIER

[4] = molecular target: insect-produced ADAM17_ECD (R&D Systems) (Homo sapiens, UniProt P78536); assay: ADAM17 active site titration with MMP-9/-13 inhibitor, insect-produced ADAM17
Chain of insect-produced ADAM17_ECD (R&D Systems) (P78536 215-671 limits assumed): as the sequence (P78536 215-671 limits assumed) above

Chain of mammalian-expressed ADAM17_ECD (P78536 215-651 limits assumed): as the sequence (P78536 215-651 limits assumed) above

Structure (SMILES)	dose response curves for inhibition of insect- versus mammalian-expressed ADAM17 [1]	Ki [2] [nM]	Ki/Ki′ (alpha) [2]	inhibition mechanism ([2]; non-linear regression)	Ki [3] [nM]	Ki/Ki′ (alpha) [3]	inhibition mechanism ([3]; non-linear regression)	stoichiometry of ADAM17_ECD and MMP-9/-13 inhibitor (factor) ([4]; 10.5 nM divided by enzyme concentration 0.4 nM, Fig. 5B)	concentration of inhibitor necessary to produce 100% inhibition of ADAM17 ([4]; titration, enzyme concentration 0.4 nM, Fig. 5A) [nM]	Ki ([2]; insect-produced ADAM17, mixed inhibition model, non-linear regression) [nM]	Ki ([3]; mammalian-produced ADAM17, mixed inhibition model, non-linear regression) [nM]
CC(=O)NO [AHA, N-acetohydroxamic acid]	superimposable										
COc1ccc(S(=O)(=O)N2CCN(C(=O)c3ccc(-c4ccccc4)cc3)CC2C(=O)NO)cc1 (centres unmarked) [MMP-9/-13 inhibitor, N-hydroxy-1-(4-methoxyphenyl)sulfonyl-4-(4-biphenylcarbonyl)piperazine-2-carboxamide]	superimposable	3.1 ± 0.2	0.91 ± 0.26	pure non-competitive inhibition	1.8 ± 0.1	0.99 ± 0.34	pure non-competitive inhibition	26.3	10.5		
CC(C)C[C@H](CC(=O)NO)C(=O)N[C@H](C(=O)N[C@@H](C)C(=O)NCCN)C(C)(C)C [TAPI-2]	superimposable		1.76 ± 0.42	mixed inhibition		2.27 ± 0.55	mixed inhibition			31 ± 1.4	32 ± 5
